Assay results reported in PubChem BioAssay AID1963973 (Molecular Pharmacology Branch, DTP, NCI, 2024).

Tested on: 883617-216-R-J1-PDC tumor spheroids, viability
Assay: Anticancer human tumor 883617-216-R-J1-PDC patient-derived bladder carcinoma cell line growth inhibition [PI3K]
Conditions: spheroids with HUVEC and MSC; for IC50: curve of first compound; for viability, T/C: stronger effect = lower value
Text: Combinatorial screen of targeted agents with the PI3K inhibitors inavolisib, alpelisib, duvelisib, and copanlisib in multi-cell type tumor spheroids
A high-throughput screen of multi-cell type tumor spheroids was designed to identify active combinations of targeted small molecules and PI3K pathway inhibitors. Complex spheroids include a stromal component modeled by human endothelial cells (HUVEC) and fibroblasts modeled by human mesenchymal stem cells (MSCs). The concentration ranges selected for each drug and investigational agent were based upon clinically achievable concentrations if the clinical Cmax of the agent was known.
Compounds. The drugs and investigational agents: inavolisib (NSC800729), alpelisib (NSC765974), duvelisib (NSC772469), copanlisib (NSC816437), ipatasertib (NSC767898), afuresertib (NSC778305), talazoparib (NSC767125), sapanisertib (NSC764658), selumetinib (NSC741078), tovorafenib (DAY101, NSC766906), vemurafenib (NSC761431), ravoxertinib (NSC781343), sotorasib (NSC818433), MRTX1133 (NSC 836407), abemaciclib (NSC 768073), palbociclib (NSC758247), venetoclax (NSC 766270), SY5609 (NSC837396), enzalutamide (NSC755605), and darolutamide (NSC825331), were obtained from the National Cancer Institute (NCI) Developmental Therapeutics Program Chemical Repository. The FDA-approved anticancer drug set is available from the NCI Developmental Therapeutics Program. […] The stock solutions were prepared in dimethyl sulfoxide (DMSO, Sigma-Aldrich, St. Louis, MO, cat. D2650) at 800-fold the tested concentration and stored at -70 degrees C prior to their use. All drugs and investigational agents were tested over a range starting from a high concentration at or near the clinical Cmax and decreasing in half-log increments. If the clinical Cmax for an agent had not been determined, the highest concentration tested was 10 microM.
Cell Culture. All cells were maintained in an incubator at 37 degrees C and 5% CO2 with 95% humidity. The PDC lines were cultured according to standard operating procedures established by the NCI PDMR (https://pdmr.cancer.gov/sops/default.htm). All PDCs were thawed and cultured in Matrigel-coated flasks prepared with a working solution of 1X Ham's F-12 nutrient mix, without supplementation (Invitrogen, Waltham, MA, cat. 11765054), 100 U/mL penicillin-streptomycin (Invitrogen, cat. 15140122), and 2.5% Matrigel (Corning Inc., Corning, NY, cat. 354248) for the first three passages. The 354836-022-R-J1-PDC, 475296-252-R-J1-PDC, and 997726-040-R-J2-PDC lines were cultured in 6A media, which includes advanced DMEM/F-12 (Thermo Fisher Scientific, cat. 12634028), 10 mM HEPES (Thermo Fisher Scientific, cat. 15630080), 1X GlutaMAX supplement (Thermo Fisher Scientific, cat. 35050061), 0.1 mg/mL primocin (InvivoGen, San Diego, CA, cat. ant-pm-2), 10% defined fetal bovine serum, heat inactivated (HyClone Laboratories Inc., Logan, UT, cat. SH30070.03HI), 50% L-WRN conditioned media (ATCC, cat. CRL-3276), 1.25 mM N-Acetyl-L-cysteine (Sigma-Aldrich, cat. A9165), 10 mM nicotinamide (Sigma-Aldrich, cat. N0636), 1X B-27 supplement (Thermo Fisher Scientific, cat. 17504044), 1X N-2 supplement (Thermo Fisher Scientific, cat. 17502048), and 10 microM Y-27632 dihydrochloride (Tocris Bioscience, Bristol, United Kingdom, cat. 1254). The 624824-186-R-J2-PDC line was cultured in 6C/Colon 1B media, which includes all 6A media components plus 50 ng/mL human EGF recombinant protein (Thermo Fisher Scientific, cat. PHG0311). […]

[1] = second compound 0.00316 µM, first compound 0.0316 µM
[2] = second compound 0.00316 µM, first compound 0.1 µM
[3] = second compound 0.01 µM, first compound 0.0316 µM
[4] = second compound 0.01 µM, first compound 0.1 µM
[5] = second compound 0.0316 µM, first compound 0.0316 µM
[6] = second compound 0.0316 µM, first compound 0.1 µM
[7] = second compound 0.1 µM, first compound 0.0316 µM
[8] = second compound 0.1 µM, first compound 0.1 µM
[9] = second compound 0.316 µM, first compound 0.0316 µM
[10] = second compound 0.316 µM, first compound 0.1 µM
[11] = second compound 1 µM, first compound 0.0316 µM
[12] = second compound 1 µM, first compound 0.1 µM
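Also: spheroids exposed to agents for 7 days before the viability read.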

## CC(C)NCC(C(=O)N1CCN(c2ncnc3c2C(C)CC3O)CC1)c1ccc(Cl)cc1 (centres undefined) + CC(Nc1ccc2c(c1)OCCn1cc(N3C(=O)OCC3C(F)F)nc1-2)C(N)=O
Second compound 0.00316 µM
  IC50: 0.453 µM
Second compound 0.01 µM
  IC50: 0.52 µM
Second compound 0.0316 µM
  IC50: 0.254 µM
Second compound 0.1 µM
  IC50: 0.0766 µM
Second compound 0.316 µM
  IC50: < 0.0316 µM
Second compound 1 µM
  IC50: < 0.0316 µM
[1]
  viability, T/C: 83.7%
[2]
  viability, T/C: 81.7%
Second compound 0.00316 µM, first compound 0.316 µM
  viability, T/C: 57.4%
Second compound 0.00316 µM, first compound 1 µM
  viability, T/C: 30.3%
Second compound 0.00316 µM, first compound 3.16 µM
  viability, T/C: 15.1%
Second compound 0.00316 µM, first compound 10 µM
  viability, T/C: 6.47%
[3]
  viability, T/C: 74.1%
[4]
  viability, T/C: 79.9%
Second compound 0.01 µM, first compound 0.316 µM
  viability, T/C: 64%
Second compound 0.01 µM, first compound 1 µM
  viability, T/C: 30.3%
Second compound 0.01 µM, first compound 3.16 µM
  viability, T/C: 14.8%
Second compound 0.01 µM, first compound 10 µM
  viability, T/C: 5.88%
[5]
  viability, T/C: 73.8%
[6]
  viability, T/C: 62%
Second compound 0.0316 µM, first compound 0.316 µM
  viability, T/C: 48.1%
Second compound 0.0316 µM, first compound 1 µM
  viability, T/C: 27.1%
Second compound 0.0316 µM, first compound 3.16 µM
  viability, T/C: 12.8%
Second compound 0.0316 µM, first compound 10 µM
  viability, T/C: 6.19%
[7]
  viability, T/C: 87.1%
[8]
  viability, T/C: 32.9%
Second compound 0.1 µM, first compound 0.316 µM
  viability, T/C: 27.9%
Second compound 0.1 µM, first compound 1 µM
  viability, T/C: 19.2%
Second compound 0.1 µM, first compound 3.16 µM
  viability, T/C: 10.1%
Second compound 0.1 µM, first compound 10 µM
  viability, T/C: 5.7%
[9]
  viability, T/C: 27.5%
[10]
  viability, T/C: 26.4%
Second compound 0.316 µM, first compound 0.316 µM
  viability, T/C: 20.7%
Second compound 0.316 µM, first compound 1 µM
  viability, T/C: 13.2%
Second compound 0.316 µM, first compound 3.16 µM
  viability, T/C: 7.79%
Second compound 0.316 µM, first compound 10 µM
  viability, T/C: 4.52%
[11]
  viability, T/C: 14.9%
[12]
  viability, T/C: 21.9%
Second compound 1 µM, first compound 0.316 µM
  viability, T/C: 15.7%
Second compound 1 µM, first compound 1 µM
  viability, T/C: 10.1%
Second compound 1 µM, first compound 3.16 µM
  viability, T/C: 10.1%
Second compound 1 µM, first compound 10 µM
  viability, T/C: 3.3%

## Cn1ncnc1[C@H]1c2n[nH]c(=O)c3cc(F)cc(c23)N[C@@H]1c1ccc(F)cc1 + CC(Nc1ccc2c(c1)OCCn1cc(N3C(=O)OCC3C(F)F)nc1-2)C(N)=O
Second compound 0.00316 µM
  IC50: > 0.1 µM
Second compound 0.01 µM
  IC50: > 0.1 µM
Second compound 0.0316 µM
  IC50: 0.00536 µM
Second compound 0.1 µM
  IC50: < 0.000316 µM
Second compound 0.316 µM
  IC50: < 0.000316 µM
Second compound 1 µM
  IC50: < 0.000316 µM
Second compound 0.00316 µM, first compound 0.000316 µM
  viability, T/C: 84.3%
Second compound 0.00316 µM, first compound 0.001 µM
  viability, T/C: 83.1%
Second compound 0.00316 µM, first compound 0.00316 µM
  viability, T/C: 89%
Second compound 0.00316 µM, first compound 0.01 µM
  viability, T/C: 78.3%
[1]
  viability, T/C: 63%
[2]
  viability, T/C: 63.2%
Second compound 0.01 µM, first compound 0.000316 µM
  viability, T/C: 83%
Second compound 0.01 µM, first compound 0.001 µM
  viability, T/C: 94.6%
Second compound 0.01 µM, first compound 0.00316 µM
  viability, T/C: 79.3%
Second compound 0.01 µM, first compound 0.01 µM
  viability, T/C: 69%
[3]
  viability, T/C: 64.9%
[4]
  viability, T/C: 59.5%
Second compound 0.0316 µM, first compound 0.000316 µM
  viability, T/C: 69.6%
Second compound 0.0316 µM, first compound 0.001 µM
  viability, T/C: 79.7%
Second compound 0.0316 µM, first compound 0.00316 µM
  viability, T/C: 54.2%
Second compound 0.0316 µM, first compound 0.01 µM
  viability, T/C: 50%
[5]
  viability, T/C: 44.2%
[6]
  viability, T/C: 40.6%
Second compound 0.1 µM, first compound 0.000316 µM
  viability, T/C: 43.4%
Second compound 0.1 µM, first compound 0.001 µM
  viability, T/C: 45.1%
Second compound 0.1 µM, first compound 0.00316 µM
  viability, T/C: 43.7%
Second compound 0.1 µM, first compound 0.01 µM
  viability, T/C: 38.2%
[7]
  viability, T/C: 32.1%
[8]
  viability, T/C: 31.9%
Second compound 0.316 µM, first compound 0.000316 µM
  viability, T/C: 25.7%
Second compound 0.316 µM, first compound 0.001 µM
  viability, T/C: 25.3%
Second compound 0.316 µM, first compound 0.00316 µM
  viability, T/C: 25.8%
Second compound 0.316 µM, first compound 0.01 µM
  viability, T/C: 28.6%
[9]
  viability, T/C: 22.8%
[10]
  viability, T/C: 19.1%
Second compound 1 µM, first compound 0.000316 µM
  viability, T/C: 18.5%
Second compound 1 µM, first compound 0.001 µM
  viability, T/C: 15.8%
Second compound 1 µM, first compound 0.00316 µM
  viability, T/C: 13%
Second compound 1 µM, first compound 0.01 µM
  viability, T/C: 14.6%
[11]
  viability, T/C: 13.5%
[12]
  viability, T/C: 10.8%
